Measurements published in patent US20250034134A1, “15-PGDH INHIBITOR AND USE THEREOF” (Wuhan Humanwell Innovative Drug Research and Development …, priority 2021, published 2025).

Experiments:
A549 cells = test: Effect of compounds on PGE2 levels in A549 cell supernatant; format: cell-based; details: 20 nM compound, about 12 hours, after IL-10 stimulation; ELISA
Experimental: A549 cells (Procell, Wuhan) were cultured in F12K+10% FBS. The cells with good status in log phase were selected for the experiment, digested, counted, and inoculated into a 24-well plate at 8000 cells per well. The cells were cultured in a 37° C., 5% CO2 incubator overnight. After adherence, the cells were transferred to a culture medium containing 0.5% FBS and cultured for about 10 hours. IL-10 was added to each well (final concentration of 20 ng/mL, 1 mL per well), and a control group (without IL-10) was set up. After stimulation with IL-10 for about 24 hours, the cell culture medium of each well was aspirated and discarded, and the wells were gently washed with fresh culture medium containing 0.5% FBS. 400 μL of culture medium containing the compound of different concentrations (20 nM and 2500 nM) was added to each well and cultured for about 12 hours. The supernatant was collected and PGE2 was detected using ELISA kit (R&D Systems, Cat. No.: KGE004B).

15-PGDH = 15-PGDH (Homo sapiens (Human), UniProt P15428); test: Inhibition test of compounds on 15-PGDH enzyme; format: biochemical
Experimental: 15-PGDH (R&D Systems, Cat. No.: 5660-DH-010) was prepared to twice the final concentration, i.e., 30 nM, using Assay Buffer (50 mM Tris-HCl, pH 7.5, 0.01vol % Tween 20). The obtained mixture was then added to a 384-well white plate (Cisbio Bioassays, Cat. No. 66PL384025) at 8 μL/well. Negative control wells (with Assay Buffer only and without enzyme) were set. The compound was then prepared to 4 times the final concentration using Assay Buffer, i.e., diluted 3-fold to 10 concentrations starting from 4000 nM. The obtained mixture was added to the above white plate at 4 μL/well, mixed well, centrifuged at 1000 rpm for 1 minute, and incubated at 25° C. for 10 minutes. Both positive control wells (with 15-PGDH only) and negative control wells (without 15-PGDH) were set. A mixture of NAD^+(Select, Cat. No. S2518) and PGE2 (R&D Systems, Cat. No.: 2296/10) was then prepared using Assay Buffer. NAD^+ and PGE2 were prepared to four times their final concentrations, i.e., 2 mM and 0.12 mM, respectively, using Assay Buffer. The obtained mixture was then added to the above white plate at 4 μL/well, mixed well, centrifuged at 1000 rpm for 1 minute, and incubated at 25° C. for 30 minutes for the reaction. The fluorescence was detected at an excitation wavelength of 340 nm and an emission wavelength of 485 nm using instrument TECAN SPARK 20M. The IC50 value was calculated using four-parameter fitting with GraphPad Prism 8.0.

15-PGDH, sequence (P15428 whole entry): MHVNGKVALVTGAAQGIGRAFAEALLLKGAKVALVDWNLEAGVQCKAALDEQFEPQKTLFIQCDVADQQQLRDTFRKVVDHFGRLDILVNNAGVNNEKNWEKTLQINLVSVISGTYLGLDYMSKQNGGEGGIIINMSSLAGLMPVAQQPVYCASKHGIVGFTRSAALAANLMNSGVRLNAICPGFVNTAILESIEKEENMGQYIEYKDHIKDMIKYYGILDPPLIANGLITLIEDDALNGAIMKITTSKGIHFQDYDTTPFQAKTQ

## CCn1nc2cc(N3CC4CC4c4cc(C(=O)N5CCC(F)(F)CC5)cnc43)ccn2c1=O (centres unmarked) [Compound I-32, 7-(6-(4,4-difluoropiperidine-1-carbonyl)-1,1a,2,7b-tetrahydro-3H-cyclopropa[c][1,8]naphthyridin-3-yl)-2-ethyl-[1,2,4]triazolo[4,3-a]pyridin-3(2H)-one]
A549 cells
  Fold increase of PGE2 in A549 cell supernatant: 3.7
15-PGDH
  IC50: 6.3 nM

## CN1Cc2cc(N3CC4CC4c4cc(C(=O)N5CCC(F)(F)CC5)cnc43)ncc2C1=O (centres unmarked) [Compound I-18, 6-(6-(4,4-difluoropiperidine-1-carbonyl)-1,1a,2,7b-tetrahydro-3H-cyclopropa[c][1,8]naphthyridin-3-yl)-2-methyl-1,2-dihydro-3H-pyrrolo[3,4-c]pyridin-3-one]
15-PGDH
  IC50: 20 nM

## [2H]C([2H])([2H])n1nc2cc(N3CC4CC4c4cc(C(=O)N5CCC(F)(F)CC5)cnc43)ccn2c1=O (single isomer, unassigned) [Compound I-25A]
15-PGDH
  IC50: 15.8 nM

## Cn1cnc2cc(N3CC4CC4c4cc(C(=O)N5CCC(F)(F)CC5)ccc43)cnc2c1=O (centres unmarked) [Compound I-15, 7-(6-(4,4-difluoropiperidine-1-carbonyl)-1,1a,2,7b-tetrahydro-3H-cyclopropa[c]quinolin-3-yl)-3-methylpyrido[3,2-d]pyrimidin-4(3H)-one]
A549 cells
  Fold increase of PGE2 in A549 cell supernatant: 3.7
15-PGDH
  IC50: 5.7 nM

## N#Cc1ccc(N2CC3CC3c3cc(C(=O)N4CCC(F)(F)CC4)cnc32)cc1 (centres unmarked) [Compound I-11, 4-(6-(4,4-difluoropiperidine-1-carbonyl)-1,1a,2,7b-tetrahydro-3H-cyclopropa[c][1,8]naphthyridin-3-yl)benzonitrile]
A549 cells
  Fold increase of PGE2 in A549 cell supernatant: 1.88
15-PGDH
  IC50: 3.8 nM

## Cn1nc2cc(N3CC4CC4c4cc(C(=O)N5CCC[C@@H](CF)C5)cnc43)ccn2c1=O (stereo partly drawn) [Compound I-30, 7-(6-((R)-3-(fluoromethyl)piperidine-1-carbonyl)-1,1a,2,7b-tetrahydro-3H-cyclopropa[c][1,8]naphthyridin-3-yl)-2-methyl-[1,2,4]triazolo[4,3-a]pyridin-3(2H)-one]
A549 cells
  Fold increase of PGE2 in A549 cell supernatant: 2.72
15-PGDH
  IC50: 6 nM

## O=C(c1cnc2c(c1)C1CC1CN2c1ccn2ncnc2c1)N1CCC(F)(F)CC1 (centres unmarked) [Compound I-16, (3-([1,2,4]triazolo[1,5-a]pyridin-7-yl)-1a,2,3,7b-tetrahydro-1H-cyclopropa[c][1,8]naphthyridin-6-yl)(4,4-difluoropiperidin-1-yl)methanone]
A549 cells
  Fold increase of PGE2 in A549 cell supernatant: 3.7
15-PGDH
  IC50: 5.4 nM

## O=C(c1cnc2c(c1)C1CC1CN2c1ccn2cnnc2c1)N1CCC(F)(F)CC1 (centres unmarked) [Compound I-17, (3-([1,2,4]triazolo[4,3-a]pyridin-7-yl)-1a,2,3,7b-tetrahydro-1H-cyclopropa[c][1,8]naphthyridin-6-yl)(4,4-difluoropiperidin-1-yl)methanone]
A549 cells
  Fold increase of PGE2 in A549 cell supernatant: 2.2
15-PGDH
  IC50: 4.5 nM

## CN1Cc2cc(N3CC4CC4c4cc(C(=O)N5CCC(F)(F)CC5)cnc43)ccc2C1=O (centres unmarked) [Compound I-1, 5-(6-(4,4-difluoropiperidine-1-carbonyl)-1,1a,2,7b-tetrahydro-3H-cyclopropa[c][1,8]naphthyridin-3-yl)-2-methylisoindolin-1-one]
A549 cells
  Fold increase of PGE2 in A549 cell supernatant: 4.3
15-PGDH
  IC50: 4.3 nM

## Cn1nc2cc(N3CC4CC4c4cc(C(=O)N5CCCC(F)(F)C5)cnc43)ccn2c1=O (centres unmarked) [Compound I-24, 7-(6-(3,3-difluoropiperidine-1-carbonyl)-1,1a,2,7b-tetrahydro-3H-cyclopropa[c][1,8]naphthyridin-3-yl)-2-methyl-[1,2,4]triazolo[4,3-a]pyridin-3(2H)-one]
A549 cells
  Fold increase of PGE2 in A549 cell supernatant: 2.95
15-PGDH
  IC50: 4.23 nM

## Cn1nc2cc(N3CC4CC4c4cc(C(=O)N5CC(C)(F)C5)cnc43)ccn2c1=O (centres unmarked) [Compound I-20, 7-(6-(3-fluoro-3-methylazetidine-1-carbonyl)-1a,2-dihydro-1H-cyclopropa[c][1,8]naphthyridin-3(7bH)-yl)-2-methyl-[1,2,4]triazolo[4,3-a]pyridin-3(2H)-one]
A549 cells
  Fold increase of PGE2 in A549 cell supernatant: 2.0
15-PGDH
  IC50: 2.83 nM

## Cn1nc2cc(N3CC4CC4c4cc(C(=O)N5CC6CC6C5)cnc43)ccn2c1=O (centres unmarked) [Compound I-29, 7-(6-(3-azabicyclo[3.1.0]hexane-3-carbonyl)-1,1a,2,7b-tetrahydro-3H-cyclopropa[c][1,8]naphthyridin-3-yl)-2-methyl-[1,2,4]triazolo[4,3-a]pyridin-3(2H)-one]
A549 cells
  Fold increase of PGE2 in A549 cell supernatant: 2.3
15-PGDH
  IC50: 5.3 nM

## Cn1nc2cc(N3CC4CC4c4cc(C(=O)N5CCCC(C(F)F)C5)cnc43)ccn2c1=O (centres unmarked) [Compound I-23, 7-(6-(3-(difluoromethyl)piperidine-1-carbonyl)-1,1a,2,7b-tetrahydro-3H-cyclopropa[c][1,8]naphthyridin-3-yl)-2-methyl-[1,2,4]triazolo[4,3-a]pyridin-3(2H)-one]
A549 cells
  Fold increase of PGE2 in A549 cell supernatant: 2.93
15-PGDH
  IC50: 4.26 nM

## Cn1nc2cc(N3CC4CC4c4cc(C(=O)N5CCC(F)(F)C5)cnc43)ccn2c1=O (centres unmarked) [Compound I-21, 7-(6-(3,3-difluoropyrrolidine-1-carbonyl)-1,1a,2,7b-tetrahydro-3H-cyclopropa[c][1,8]naphthyridin-3-yl)-2-methyl-[1,2,4]triazolo[4,3-a]pyridin-3(2H)-one]
A549 cells
  Fold increase of PGE2 in A549 cell supernatant: 2.3
15-PGDH
  IC50: 4.95 nM

## Cn1nc2cc(N3CC4CC4c4cc(C(=O)N5CCOCC5)cnc43)ccn2c1=O (centres unmarked) [Compound I-22, 2-methyl-7-(6-(morpholine-4-carbonyl)-1,1a,2,7b-tetrahydro-3H-cyclopropa[c][1,8]naphthyridin-3-yl)-[1,2,4]triazolo[4,3-a]pyridin-3(2H)-one]
15-PGDH
  IC50: 10.2 nM

## Cn1ccc2cc(N3CC4CC4c4cc(C(=O)N5CCC(F)(F)CC5)cnc43)ccc2c1=O (single isomer, unassigned) [Compound I-12A]
15-PGDH
  IC50: 1.52 nM

## Cn1ncc2cc(N3CC4CC4c4cc(C(=O)N5CCC(F)(F)CC5)ccc43)cnc2c1=O (centres unmarked) [Compound I-14, 3-(6-(4,4-difluoropiperidine-1-carbonyl)-1,1a,2,7b-tetrahydro-3H-cyclopropa[c]quinolin-3-yl)-7-methylpyrido[2,3-d]pyridazin-8(7H)-one]
A549 cells
  Fold increase of PGE2 in A549 cell supernatant: 2.3
15-PGDH
  IC50: 8.6 nM

## Cn1ncc2cc(N3CC4CC4c4cc(C(=O)N5CCC(F)(F)CC5)ccc43)ccc2c1=O (centres unmarked) [Compound I-13, 6-(6-(4,4-difluoropiperidine-1-carbonyl)-1,1a,2,7b-tetrahydro-3H-cyclopropa[c]quinolin-3-yl)-2-methylphthalazin-1(2H)-one]
A549 cells
  Fold increase of PGE2 in A549 cell supernatant: 6.1
15-PGDH
  IC50: 4.03 nM

## CNC(=O)c1ccc(N2CC3CC3c3cc(C(=O)N4CCC(F)(F)CC4)cnc32)cc1F (centres unmarked) [Compound I-9, 4-(6-(4,4-difluoropiperidine-1-carbonyl)-1,1a,2,7b-tetrahydro-3H-cyclopropa[c][1,8]naphthyridin-3-yl)-2-fluoro-N-methylbenzamide]
15-PGDH
  IC50: 9.51 nM

## CN1C(=O)c2ncc(N3CC4CC4c4cc(C(=O)N5CCC(F)(F)CC5)cnc43)cc2C12CC2 (centres unmarked) [Compound I-19, 3′-(6-(4,4-difluoropiperidine-1-carbonyl)-1,1a,2,7b-tetrahydro-3H-cyclopropa[c][1,8]naphthyridin-3-yl)-6′-methylspiro[cyclopropane-1,5′-pyrrolo[3,4-b]pyridin]-7′(6′H)-one]
A549 cells
  Fold increase of PGE2 in A549 cell supernatant: 4.72
15-PGDH
  IC50: 3.72 nM

## [2H]C([2H])([2H])n1nc2cc(N3CC4CC4c4cc(C(=O)N5CCC(F)(F)CC5)cnc43)ccn2c1=O (centres unmarked) [Compound I-25, 7-(6-(4,4-difluoropiperidine-1-carbonyl)-1,1a,2,7b-tetrahydro-3H-cyclopropa[c][1,8]naphthyridin-3-yl)-2-(methyl-d3)-[1,2,4]triazolo[4,3-a]pyridin-3(2H)-one]
15-PGDH
  IC50: 2.59 nM

## [2H]C([2H])([2H])n1nc2cc(N3CC4CC4c4cc(C(=O)N5CCC(F)(F)CC5)cnc43)ccn2c1=O (single isomer, unassigned) [Compound I-25B]
15-PGDH
  IC50: 3.78 nM

## Cn1ccc2cc(N3CC4CC4c4cc(C(=O)N5CCC(F)(F)CC5)cnc43)ccc2c1=O (single isomer, unassigned) [Compound I-12B]
15-PGDH
  IC50: 7.42 nM
